This is an account of results in US20250154198A1, “PEPTIDE INHIBITORS OF INTERLEUKIN-23 RECEPTOR” (Zealand Pharma A/S, priority 2021, published 2025).

Series [1] is described as follows: Peptide stability in simulated intestinal fluid (SIF). It counts as in vitro ADME. The following applies: pig, simulated intestinal fluid (SIF) with porcine pancreatin, Table 3-2, porcine pancreatin, pH 6.8, 37° C., 10 μM, 4 h, read-out: SIF (% remaining 4 h). In a few lines:
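Peptides incubated at 37°C with gentle shaking in SGF (NaCl, HCl, pH 1.2) or SIF (phosphate pH 6.8 with 10 g/L porcine pancreatin). Samples analysed by LC-HRMS; percent remaining at each timepoint calculated from absolute peak areas relative to time zero.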

Series [2] can be described thus: Peptide stability in simulated gastric fluid (SGF). It counts as in vitro ADME. The conditions noted are these: pig, simulated gastric fluid (SGF) with porcine pepsin, Table 3-3, porcine pepsin, pH 1.2, 37° C., 10 μM. As for the experimental part: Determination of Peptide Stability in Simulated Gastric Fluid (SGF) and Simulated Intestinal Fluid (SIF)
SGF was prepared by dissolving sodium chloride (0.2 g) in 50 mL of water. A volume of 0.7 mL of 10 M HCl was added to adjust the pH of the solution to 1.2 and the volume made up to 100 mL with water. […] SIF was prepared by dissolving monobasic potassium phosphate (0.68 g) in 50 mL of water and adjusting the pH to 6.8 with 1 M NaOH. The volume was subsequently made up to 100 mL with water. 200 mg porcine pancreatin (P1625, Sigma Aldrich) was gently dissolved into 20 mL preheated (37° C.) solution (10 g/L) immediately prior to the incubation.
The incubation was performed at 37° C. with gentle shaking. […] After the last timepoint, the sampling plate was mixed for 10 min on a shaking table and centrifuged 10 min at 2200 g. 70 μL resulting supernatant was diluted with 150 μL water, mixed and centrifugated before analysis by liquid chromatography high resolution mass spectrometry. […] Percent remaining at each timepoint was calculated relative to timepoint zero based on absolute peak areas.

In series [3] the target is IL-23 mediated phospho-STAT3 formation in DB cells (Homo sapiens, UniProt Q5VWK5). Briefly: Functional inhibition of IL-23 mediated STAT3 signalling (phospho-STAT3 Tyr705 MSD) in DB cells. It counts as cell-based. In a few lines: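 DB cells preincubated 15 min with compound at 37° C, then stimulated 90 min with hIL-23 at EC80. Lysate phospho-STAT3 measured by MSD, normalized to IL-23-alone and buffer wells; IC50 and maximal % inhibition from 4PL fit.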

In series [4] the target is T1, human IL-23R (Homo sapiens, UniProt Q5VWK5).
T1 construct: UniProtKB—Q5VWK5, amino acids 22-629; secretion signal of the plasmid (Promega N1371); expressed in transfected cells
T1 sequence (Q5VWK5 22-629): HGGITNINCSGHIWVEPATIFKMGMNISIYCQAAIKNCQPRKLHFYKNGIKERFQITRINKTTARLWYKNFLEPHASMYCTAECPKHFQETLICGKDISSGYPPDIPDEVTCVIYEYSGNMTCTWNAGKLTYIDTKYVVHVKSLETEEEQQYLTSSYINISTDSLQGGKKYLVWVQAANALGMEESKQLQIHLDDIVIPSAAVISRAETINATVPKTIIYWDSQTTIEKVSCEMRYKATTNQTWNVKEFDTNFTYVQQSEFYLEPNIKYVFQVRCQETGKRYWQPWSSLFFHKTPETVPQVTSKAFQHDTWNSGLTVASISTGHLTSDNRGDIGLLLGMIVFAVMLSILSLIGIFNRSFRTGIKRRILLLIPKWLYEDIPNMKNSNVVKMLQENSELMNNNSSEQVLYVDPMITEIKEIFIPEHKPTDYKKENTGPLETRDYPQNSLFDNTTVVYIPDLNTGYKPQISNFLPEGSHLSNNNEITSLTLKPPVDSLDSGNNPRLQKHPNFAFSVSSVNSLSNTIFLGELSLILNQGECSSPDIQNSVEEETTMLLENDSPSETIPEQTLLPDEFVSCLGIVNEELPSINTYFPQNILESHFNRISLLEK
Briefly: Binding assay (NanoBRET displacement of fluorophore-labelled reference compound) for estimating binding affinity to human IL-23R. The conditions noted are these: for IL-23R inhibitory activity (in words): with reference to Ki and IC50 data of the Examples.

Setting [5] is: Table 3-1, DB cells, read-out: IC50 (pSTAT3).
Where [6] appears, read: Table 3-1, read-out: Ki hIL-23R.

Read-outs that look alike come from different tables or passages of the source. *1 amine or outer side, *2 acyl side, *3 side chain or, on linkers, in order; H or OH if unused. Where a SMILES comes first, the peptide text is derived from it. Bridges are numbered along the chain shown (N, C = ends). [ ]: non-standard residue; d: D form. αMeAla(3-pyridyl) = C[C@](N)(Cc1cccnc1)C(=O)O; Phe(3,4-Me2) = Cc1ccc(C[C@H](N)C(=O)O)cc1C; αMeW = C[C@](N)(Cc1c[nH]c2ccccc12)C(=O)O; 2Nal = N[C@@H](Cc1ccc2ccccc2c1)C(=O)O; AEF = NCCOc1ccc(C[C@H](N)C(=O)O)cc1; X1 = O=C(Cc1ccc(CN[*:1])cc1)[*:2]; αMeR = C[C@](N)(CCCNC(=N)N)C(=O)O; αMeL = CC(C)C[C@](C)(N)C(=O)O; CH2COCH2 = O=C(C[*:1])C[*:2]; αMeV = CC(C)[C@](C)(N)C(=O)O; 3Amb = NCc1cccc(C(=O)O)c1; Dab = NCC[C@H](N)C(=O)O Bounds are passed on as bounds.

For the molecule `CC[C@H](C)[C@@H]1NC(=O)Cc2ccc(cc2)CNC(=O)CC[C@@H](C(=O)N[C@@H](CCN)C(=O)N[C@@](C)(Cc2cccnc2)C(N)=O)NC(=O)[C@](C)(C(C)C)NC(=O)[C@H](Cc2ccc(C)c(C)c2)NC(=O)[C@](C)(Cc2c[nH]c3ccccc23)NC(=O)[C@@H]2CCNC(=O)CC[C@H](NC1=O)C(=O)N[C@@H](Cc1c[nH]c3ccccc13)C(=O)N[C@@H](CCC(N)=O)C(=O)N2` [Compound 172, [4-Aminomethyl-phenylacetyl](1c)*IE(2c)WQ[Dab](2c)[alpha-Me-Trp][F(3,4-Me)][2-Me-Val]E(1c)[Dab][2-Me-3-(3-Pyridyl)-Ala]-[NH2]] ([X1]IEWQ[Dab][αMeW][Phe(3,4-Me2)][αMeV]E[Dab][αMeAla(3-pyridyl)]-NH2; lactam 3-6, N-10), the amount remaining at 4 h, 10 μM in series [1] is 70%; in series [2] (4 h, read-out: SGF (% remaining 4 h)), 99%.

As for `CC(=O)N[C@@H](CC(=O)O)C(=O)N[C@H]1CCCCNC(=O)CC[C@@H](C(=O)N[C@@H](CCCNC(=N)N)C(N)=O)NC(=O)[C@H](CC(C)C)NC(=O)[C@H](Cc2ccc3ccccc3c2)NC(=O)[C@H](Cc2c[nH]c3ccccc23)NC(=O)[C@@H]2CSCc3cccc(c3)CSC[C@H](NC(=O)[C@H](CO)NC1=O)C(=O)N[C@@H](Cc1c[nH]c3ccccc13)C(=O)N[C@@H](CCC(N)=O)C(=O)N2` [Compound 21, [Ac]-DK(1c)SC(2e)WQC(2e)W[2-Nal]LE(1c)R-[NH2]] (HELM PEPTIDE1{[ac].D.K.S.C.W.Q.C.W.[O=C([C@H](Cc1ccc2ccccc2c1)N[*:1])[*:2]].L.E.R.[am]}|CHEM1{[c1cc(C[*:1])cc(C[*:2])c1]}$PEPTIDE1,PEPTIDE1,3:R3-12:R3|PEPTIDE1,CHEM1,5:R3-1:R1|PEPTIDE1,CHEM1,8:R3-1:R2$$$V2.0), the IC50 is greater than 1 µM in series [3] (Table 2-7b, DB cells, read-out: IC50 (pSTAT3)) and greater than 1 µM in series [3] (setting [5]). The Ki in series [4] (Table 2-7b, read-out: Ki IL-23R) is 0.634 µM.

Turning to `CC(=O)N[C@@H](CC(=O)O)C(=O)N[C@H]1CCC(=O)NCCCC[C@@H](C(=O)N[C@@H](CCCNC(=N)N)C(N)=O)NC(=O)[C@H](CC(C)C)NC(=O)[C@H](C)NC(=O)[C@H](Cc2c[nH]c3ccccc23)NC(=O)[C@@H]2CSCC(=O)CSC[C@H](NC(=O)[C@H](CO)NC1=O)C(=O)N[C@@H](Cc1c[nH]c3ccccc13)C(=O)N[C@@H](CCC(N)=O)C(=O)N2` [Compound 15, [Ac]-DE(1c)SC(2a)WQC(2a)WALK(1c)R-[NH2]] (HELM PEPTIDE1{[ac].D.E.S.C.W.Q.C.W.A.L.K.R.[am]}|CHEM1{[O=C(C[*:1])C[*:2]]}$PEPTIDE1,PEPTIDE1,3:R3-12:R3|PEPTIDE1,CHEM1,5:R3-1:R1|PEPTIDE1,CHEM1,8:R3-1:R2$$$V2.0), the IC50 in series [3] (setting [5]) is greater than 1 µM. Moreover, the Ki in series [4] (setting [6]) is greater than 1 µM.

As for `CC(C)C[C@]1(C)NC(=O)[C@H](Cc2ccc3ccccc3c2)NC(=O)[C@H](Cc2ccc(OCCN)cc2)NC(=O)[C@@H]2CSCC(=O)CSC[C@H](NC(=O)[C@H](CO)NC(=O)c3cccc(c3)CNC(=O)CC[C@@H](C(=O)N[C@@](C)(CCCNC(=N)N)C(N)=O)NC1=O)C(=O)N[C@@H](Cc1c[nH]c3ccccc13)C(=O)N[C@@H](CCC(N)=O)C(=O)N2` [Compound 42, [(3-Aminomethyl)benzoyl](1c)*SC(2a)WQC(2a)[Y(2-aminoethoxy)][2-Nal][2-Me-Leu]E(1c)[2-Me-Arg]-[NH2]] ([3Amb]SCWQC[AEF][2Nal][αMeL]E[αMeR]-NH2; linker 3-6 via CH2COCH2; lactam N-10), in series [2] (1 h, read-out: SGF (% remaining 1 h)), the amount remaining at 1 h, 10 μM is 90%. Also, the Ki in series [4] (setting [6]) is 0.00276 µM.

For `CC(=O)N[C@@H](CC(=O)O)C(=O)N[C@H]1CCC(=O)NCCCC[C@@H](C(=O)N[C@@H](CCCNC(=N)N)C(N)=O)NC(=O)[C@H](CC(C)C)NC(=O)[C@H](Cc2c[nH]c3ccccc23)NC(=O)[C@H](Cc2c[nH]c3ccccc23)NC(=O)[C@@H]2CSCC(=O)CSC[C@H](NC(=O)[C@H](CO)NC1=O)C(=O)N[C@@H](Cc1c[nH]c3c(C)cccc13)C(=O)N[C@@H](CCC(N)=O)C(=O)N2` [Compound 16, [Ac]-DE(1c)SC(2a)[7-Me-Trp]QC(2a)WWLK(1c)R-[NH2]] (HELM PEPTIDE1{[ac].D.E.S.C.[Cc1cccc2c(C[C@H](N[*:1])C(=O)[*:2])c[nH]c12].Q.C.W.W.L.K.R.[am]}|CHEM1{[O=C(C[*:1])C[*:2]]}$PEPTIDE1,PEPTIDE1,3:R3-12:R3|PEPTIDE1,CHEM1,5:R3-1:R1|PEPTIDE1,CHEM1,8:R3-1:R2$$$V2.0), in series [3] (Table 2-5b, DB cells, read-out: IC50 (pSTAT3)), the IC50 worked out at 0.461 µM. Further, in series [4] (Table 2-5b, read-out: Ki IL-23R), the Ki is 0.0954 µM.

`CC(=O)N[C@@H](CC(=O)O)C(=O)N[C@H]1CCC(=O)NCCCC[C@@H](C(=O)N[C@@H](CCCNC(=N)N)C(N)=O)NC(=O)[C@H](CC(C)C)NC(=O)[C@H](Cc2c[nH]c3ccccc23)NC(=O)[C@H](Cc2c[nH]c3ccccc23)NC(=O)[C@@H]2CSCC(=O)CSC[C@H](NC(=O)[C@H](CO)NC1=O)C(=O)N[C@@H](C)C(=O)N[C@@H](CCC(N)=O)C(=O)N2` [Compound 13, [Ac]-DE(1c)SC(2a)AQC(2a)WWLK(1c)R-[NH2]] (HELM PEPTIDE1{[ac].D.E.S.C.A.Q.C.W.W.L.K.R.[am]}|CHEM1{[O=C(C[*:1])C[*:2]]}$PEPTIDE1,PEPTIDE1,3:R3-12:R3|PEPTIDE1,CHEM1,5:R3-1:R1|PEPTIDE1,CHEM1,8:R3-1:R2$$$V2.0): the concentration for half-maximal inhibition (IC50) in series [3] (setting [5]) is greater than 1 µM. The Ki in series [4] (setting [6]) is greater than 1 µM.

With `CC(C)C[C@@H]1NC(=O)[C@H](Cc2c[nH]c3ccccc23)NC(=O)[C@H](Cc2c[nH]c3ccccc23)NC(=O)[C@@H]2CSSC[C@H](NC(=O)[C@H](CO)NC(=O)[C@@H](NC(=O)[C@@H](N)CC(=O)O)CSSC[C@@H](C(=O)N[C@@H](CCCNC(=N)N)C(N)=O)NC1=O)C(=O)N[C@@H](Cc1c[nH]c3ccccc13)C(=O)N[C@@H](CCC(N)=O)C(=O)N2` [Ref 1, H-DC(1b)SC(2b)WQC(2b)WWLC(1b)R-[NH2], reference compound], the IC50 in series [3] is greater than 1 µM; in series [3] (read-out: IC50 (pSTAT3), Table 3-1, DB cells), greater than 1 µM. In addition, the Ki in series [4] is greater than 1 µM. The “IL-23R inhibitory activity (in words)” value in series [4] was “inactive”.

Regarding `CC(=O)N[C@@H](CC(=O)O)C(=O)N[C@H]1CCC(=O)NCCCC[C@@H](C(=O)N[C@@H](CCCNC(=N)N)C(N)=O)NC(=O)[C@H](Cc2c[nH]c3ccccc23)NC(=O)[C@H](Cc2c[nH]c3ccccc23)NC(=O)[C@@H]2CSCC(=O)CSC[C@H](NC(=O)[C@H](CO)NC1=O)C(=O)N[C@@H](Cc1c[nH]c3ccccc13)C(=O)N[C@@H](CCC(N)=O)C(=O)N2` [Ref 7, [Ac]-DE(1c)SC(2a)WQC(2a)WWK(1c)R-[NH2], reference compound] (HELM PEPTIDE1{[ac].D.E.S.C.W.Q.C.W.W.K.R.[am]}|CHEM1{[O=C(C[*:1])C[*:2]]}$PEPTIDE1,PEPTIDE1,3:R3-11:R3|PEPTIDE1,CHEM1,5:R3-1:R1|PEPTIDE1,CHEM1,8:R3-1:R2$$$V2.0), in series [3] (setting [5]), the IC50 was greater than 1 µM. Moreover, the Ki in series [4] (setting [6]) is greater than 1 µM. Moreover, the “IL-23R inhibitory activity (in words)” value in series [4] was “inactive”.
